According to patent US20120029054A1, “RNA Interference Mediated Inhibition of GATA Binding Protein 3 (GATA3) Gene Expression Using Short Intefering Nucleic Acid (siNA)” (Merck Sharp & Dohme Corp., priority 2009, published 2012):
[invAb] = inverted abasic unit; m = 2'-O-methyl; r = 2'-OH (RNA); f = 2'-fluoro

What was measured:
GATA3 mRNA [1] = test: GATA3 mRNA knock-down (Taqman qRT-PCR) after RNAiMax transfection of human MCF7 cells; screen and IC50 dose response; format: cell-based; details: 10 nM siNA, MCF7 cells, 24 hrs
Experimental: MCF7 (human; ATCC cat# HTB-22): Cells were cultured at 37° C. in the presence of 5% CO2 and grown in Eagle's Minimum Essential medium with supplemented with fetal bovine serum at a final concentration of 10% and 100 μg/mL of streptomycin and 100 U/mL penicillin.
(§1) Cells were plated in all wells of a tissue-culture treated, 96-well plate at a final count of 5000 cells/well in 100 μL of the appropriate culture media. The cells were cultured for 24 hours after plating at 37° C. in the presence of 5% CO2.
(§2) After 24 hours, complexes containing siNA and RNAiMax were created as follows: A solution of RNAiMax diluted 33-fold in OPTI-MEM was prepared. In parallel, solutions of the siNAs for testing were prepared to a final concentration of 120 nM in OPTI-MEM. After incubation of RNAiMax/OPTI-MEM solution at room temperature for 5 min, an equal volume of the siNA solution and the RNAiMax solution were added together for each of the siNAs.
(§3) This solution was incubated at room temperature for 20 minutes. After incubation, 20 uL of the solution was added to each of the relevant wells. The final concentration of siNA in each well was 10 nM and the final volume of RNAiMax in each well was 0.3 ul.
(§4) The time of incubation with the RNAiMax-siNA complexes was 24 hours and there was no change in media between transfection and harvesting, unless otherwise indicated.
(§5) RNA was extracted from a 96-well plate using the TaqMan® Gene Expression Cells-to-CT™ Kit (Cat#4399002) with a modified protocol. Briefly, a 60 uL (1 plate) or 110 uL (2 plates) of the Lysis Solution with DNase I was dispensed into each well of the Lysis Buffer Plate (twin.tec full skirt plate). The lysis buffer and stop plates were stored at 4° C. until the cells were washed.
(§6) The plate was spun at 1100 rpm for 5 minutes. The culture medium was aspirated and discarded from the wells of the culture plate. The lysis was performed automatically using a BioMek FX instrument and method. After the Biomek method was completed, the lysis plate was incubated for 2 min. at room temperature. The lysis plate can be stored for 2 hours at 4° C., or at −20° C. or −80° C. for two months.
(§7) Each well of the reverse transcription plate required 10 uL of 2× reverse transcriptase Buffer, 1 uL of 20× reverse transcription enzyme and 2 uL of nuclease-free water. The reverse transcription master mix was prepared by mixing 2× reverse transcription buffer, 20× reverse transcription enzyme mix, and nuclease-free water. 13 uL of the reverse transcription master mix was dispensed into each well of the reverse transcription plate (semi-skirted). A separate reverse transcription plate was prepared for each cell plate. The plate was loaded onto a Biomek NX or Biomek FX Dual-96 and the Biomek method was run. The program is programmed to automatically added 7 uL of lysate from the cell lysis procedure described above into each well of the reverse transcription plate. The plate is sealed and spun on a centrifuge (1000 rpm for 30 seconds) to settle the contents to the bottom of the reverse transcription plate. The plate is placed in a thermocycler at 37° C. for 60 min, 95° C. for 5 min, and 4° C. until the plate is removed from the thermocycler. Upon removal, if not used immediately, the plate was frozen at −20° C.
(§8) A series of probes and primers were used to detect the various mRNA transcripts of the genes of β-Actin (human cell line only), and of GATA3 and GAPDH in mouse and human cell lines. All Taqman probes and primers for the experiments here-in described were supplied as pre-validated sets by Applied Biosystems, Inc. (see Table 2).
(§9) The assays were performed on an ABI 7900 instrument, according to the manufacturer's instructions. A TaqMan Gene Expression Master Mix (provided in the Cells-to-CT™, Applied Biosystems, Cat #4399002) was used. The PCR reactions were carried out at 50° C. for 2 min, 95° C. for 20 min followed by 40 cycles at 95° C. for 15 secs and 60° C. for 1 min. […]

GATA3 mRNA [2] = test: GATA3 mRNA knock-down (Taqman qRT-PCR) after RNAiMax transfection of mouse RAG cells; format: cell-based; details: 10 nM siNA, 24 hrs, average of 2 experiments
Experimental: RAG (murine; ATCC cat# CCL-142): Cells were cultured at 37° C. in the presence of 5% CO2 and grown in Eagle's Minimum Essential medium with supplemented with 10% of fetal bovine serum, 100 μg/mL of streptomycin, and 100 U/mL penicillin.
as §1, §2, §3, §4, §5, §6, §7, §8, §9

Substance | % KD Human (GATA3 mRNA [1]; average of 3 experiments) [%] | % KD Mouse (GATA3 mRNA [2]) [%] | % KD Human (GATA3 mRNA [1]; * Hs00231122_m1 Taqman Assay) | % KD Human (GATA3 mRNA [1]; ** Hs00922328_m1 Taqman Assay)
30283-DC: GATA3 siNA duplex, human/mouse site 3067: sense B GucccuGuAAuuGuuGuuu TTB (SEQ 119), antisense AAAcAAcAAuuAcAGGGAcUU (SEQ 120) (sense GUCCCUGUAAUUGUUGUUUTT; antisense AAACAACAAUUACAGGGACUU; sense: DNA at AGT, 2'-fluoro at CU, [invAb] at 5' end, 3' end, backbone not given here; antisense: sugars from the 5' end rrrfmmfmmffmfmmmmmfmm, backbone not given here) | 32 ± 5 | 47 ± 1 |  | 
30284-DC: GATA3 siNA duplex, human/mouse site 2155: sense B uGcuGAAcAuuGcAuAuAA TTB (SEQ 121), antisense UUAuAuGcAAuGuucAGcAUU (SEQ 122) (sense UGCUGAACAUUGCAUAUAATT; antisense UUAUAUGCAAUGUUCAGCAUU; sense: DNA at AGT, 2'-fluoro at CU, [invAb] at 5' end, 3' end, backbone not given here; antisense: sugars from the 5' end rrrfmfmfmmfmfffmmfrmm, backbone not given here) | 46 ± 5 | 65 ± 0 |  | 
30247-DC: GATA3 siNA duplex, site 763: sense B GGGccAcGGuGcAGAGGuA TTB (SEQ 47), antisense UACcucuGcAccGuGGcccUU (SEQ 48) (sense GGGCCACGGUGCAGAGGUATT; antisense UACCUCUGCACCGUGGCCCUU; chemistry not fully specified) | −7 ± 17 | −25 ± 14 |  | 
30252-DC: GATA3 siNA duplex, site 1084: sense B cccGGcAGGAcGAGAAAGA TTB (SEQ 57), antisense UCUuucucGuccuGccGGGUU (SEQ 58) (sense CCCGGCAGGACGAGAAAGATT; antisense UCUUUCUCGUCCUGCCGGGUU; sense: DNA at AGT, 2'-fluoro at C, [invAb] at 5' end, 3' end, backbone not given here; antisense: sugars from the 5' end rrrfffffmffffmffmmmmm, backbone not given here) | −3 ± 2 | 0 ± 4 |  | 
30268-DC: GATA3 siNA duplex, mouse site 1533: sense B GAcAuccuGcGcGaacuGu TTB (SEQ 89), antisense ACAGuucGcGcAGGAuGucUU (SEQ 90) (sense GACAUCCUGCGCGAACUGUTT; antisense ACAGUUCGCGCAGGAUGUCUU; chemistry not fully specified) | 16 ± 3 | 17 ± 2 |  | 
30249-DC: GATA3 siNA duplex, site 673: sense B cGcAGuAcccGcuGccGGA TTB (SEQ 51), antisense UCCGGcAGcGGGuAcuGcGUU (SEQ 52) (sense CGCAGUACCCGCUGCCGGATT; antisense UCCGGCAGCGGGUACUGCGUU; sense: DNA at AGT, 2'-fluoro at CU, [invAb] at 5' end, 3' end, backbone not given here; antisense: sugars from the 5' end rrrmmfmmfmmmfmffmfmmm, backbone not given here) | 1 ± 19 | −12 ± 2 |  | 
30256-DC: GATA3 siNA duplex, site 719: sense B cGGucAAGGcAAccAcGuc TTB (SEQ 65), antisense GACGuGGuuGccuuGAccGUU (SEQ 66) (sense CGGUCAAGGCAACCACGUCTT; antisense GACGUGGUUGCCUUGACCGUU; chemistry not fully specified) | −19 ± 5 | 1 ± 6 |  | 
30269-DC: GATA3 siNA duplex, mouse site 1449: sense B cuGcGGAcucuAccAuAAA TTB (SEQ 91), antisense UUUAuGGuAGAGuccGcAGUU (SEQ 92) (sense CUGCGGACUCUACCAUAAATT; antisense UUUAUGGUAGAGUCCGCAGUU; sense: DNA at AGT, 2'-fluoro at CU, [invAb] at 5' end, 3' end, backbone not given here; antisense: sugars from the 5' end rrrmfmmfmmmmfffmfmmmm, backbone not given here) | −36 ± 9 | 83 ± 0 |  | 
30285-DC: GATA3 siNA duplex, human/mouse site 2129: sense B GGucucuAGuGcuGuGAAA TTB (SEQ 123), antisense UUUcAcAGcAcuAGAGAccUU (SEQ 124) (sense GGUCUCUAGUGCUGUGAAATT; antisense UUUCACAGCACUAGAGACCUU; sense: DNA at AGT, 2'-fluoro at CU, [invAb] at 5' end, 3' end, backbone not given here; antisense: sugars from the 5' end rrrfmfmmfmffmmmmmffmm, backbone not given here) |  | 69 ± 1 | 49 ± 11* % | 52 ± 10** %
30274-DC: GATA3 siNA duplex, mouse site 704: sense B cucAGuAuccGcuGAcGGA TTB (SEQ 101), antisense UCCGucAGcGGAuAcuGAGUU (SEQ 102) (sense CUCAGUAUCCGCUGACGGATT; antisense UCCGUCAGCGGAUACUGAGUU; sense: DNA at AGT, 2'-fluoro at CU, [invAb] at 5' end, 3' end, backbone not given here; antisense: sugars from the 5' end rrrmffmmfmmmfmffmmmmm, backbone not given here) | 0 ± 13 | −2 ± 4 |  | 
30254-DC: GATA3 siNA duplex, site 619: sense B GGcAGcAcccGGAcAcGcA TTB (SEQ 61), antisense UGCGuGuccGGGuGcuGccUU (SEQ 62) (sense GGCAGCACCCGGACACGCATT; antisense UGCGUGUCCGGGUGCUGCCUU; chemistry not fully specified) | −27 ± 15 | 6 ± 5 |  | 
30265-DC: GATA3 siNA duplex, mouse site 2025: sense B GcccGAAAGcGAcAGAucu TTB (SEQ 83), antisense AGAucuGucGcuuucGGGcUU (SEQ 84) (sense GCCCGAAAGCGACAGAUCUTT; antisense AGAUCUGUCGCUUUCGGGCUU; chemistry not fully specified) | −8 ± 13 | 58 ± 0 |  | 
30262-DC: GATA3 siNA duplex, site 1818: sense B ccGAuGcAcccGccAuccA TTB (SEQ 77), antisense UGGAuGGcGGGuGcAucGGUU (SEQ 78) (sense CCGAUGCACCCGCCAUCCATT; antisense UGGAUGGCGGGUGCAUCGGUU; chemistry not fully specified) | 10 ± 11 | 1 ± 7 |  | 
